Where two headings read alike, the source gives them in different places. Blank lines part the entries; values can stand above or below the compound they belong to.
What was measured:
Assay in all cases: biochemical
Set-up in all cases: DiscoveRx KINOMEscan active site-directed competition binding; percent of control kinase bound to immobilised ligand
[1] = target: T1, HPK1 (Homo sapiens, UniProt Q92918)
T1 construct: gene MAP4K1

[2] = target: T2, ERK3 (Homo sapiens, UniProt Q16659)
T2 construct: gene MAPK6
T2 sequence (Q16659 whole entry): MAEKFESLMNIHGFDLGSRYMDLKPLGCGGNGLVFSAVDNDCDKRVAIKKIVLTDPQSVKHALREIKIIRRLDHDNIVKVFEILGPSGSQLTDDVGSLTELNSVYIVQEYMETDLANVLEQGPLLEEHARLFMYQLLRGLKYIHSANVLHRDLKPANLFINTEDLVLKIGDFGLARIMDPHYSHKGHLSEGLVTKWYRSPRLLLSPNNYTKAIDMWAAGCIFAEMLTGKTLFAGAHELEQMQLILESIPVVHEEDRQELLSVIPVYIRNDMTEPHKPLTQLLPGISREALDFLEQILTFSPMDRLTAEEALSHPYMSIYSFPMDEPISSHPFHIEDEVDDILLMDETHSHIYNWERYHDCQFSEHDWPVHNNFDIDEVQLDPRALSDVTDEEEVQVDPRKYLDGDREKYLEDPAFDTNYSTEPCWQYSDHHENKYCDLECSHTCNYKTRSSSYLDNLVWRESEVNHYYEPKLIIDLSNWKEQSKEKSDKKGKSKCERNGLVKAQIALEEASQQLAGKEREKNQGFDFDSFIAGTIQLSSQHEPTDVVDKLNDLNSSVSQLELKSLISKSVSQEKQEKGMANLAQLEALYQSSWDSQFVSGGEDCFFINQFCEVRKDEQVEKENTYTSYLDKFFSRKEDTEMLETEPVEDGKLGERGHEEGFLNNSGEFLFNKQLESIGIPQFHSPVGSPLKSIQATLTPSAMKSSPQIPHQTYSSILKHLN

[3] = target: T3, p38-gamma (Homo sapiens, UniProt P53778)
T3 construct: gene MAPK12
T3 sequence (P53778 1-367): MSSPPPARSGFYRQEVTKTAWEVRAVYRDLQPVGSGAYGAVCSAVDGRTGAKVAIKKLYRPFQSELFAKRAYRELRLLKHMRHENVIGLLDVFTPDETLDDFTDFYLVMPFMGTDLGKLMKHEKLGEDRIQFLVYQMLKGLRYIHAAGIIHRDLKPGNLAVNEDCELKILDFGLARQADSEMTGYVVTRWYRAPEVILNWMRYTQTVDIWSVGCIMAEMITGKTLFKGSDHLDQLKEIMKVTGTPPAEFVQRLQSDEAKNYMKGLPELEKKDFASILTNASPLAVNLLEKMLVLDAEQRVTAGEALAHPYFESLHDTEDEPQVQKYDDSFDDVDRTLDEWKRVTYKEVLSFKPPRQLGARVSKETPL

[4] = target: T4, JAK2(JH1domain-catalytic) (Homo sapiens, UniProt O60674)
T4 construct: JH1domain-catalytic

[5] = target: T5, ULK3 (Homo sapiens, UniProt Q6PHR2)
T5 sequence (Q6PHR2 1-472): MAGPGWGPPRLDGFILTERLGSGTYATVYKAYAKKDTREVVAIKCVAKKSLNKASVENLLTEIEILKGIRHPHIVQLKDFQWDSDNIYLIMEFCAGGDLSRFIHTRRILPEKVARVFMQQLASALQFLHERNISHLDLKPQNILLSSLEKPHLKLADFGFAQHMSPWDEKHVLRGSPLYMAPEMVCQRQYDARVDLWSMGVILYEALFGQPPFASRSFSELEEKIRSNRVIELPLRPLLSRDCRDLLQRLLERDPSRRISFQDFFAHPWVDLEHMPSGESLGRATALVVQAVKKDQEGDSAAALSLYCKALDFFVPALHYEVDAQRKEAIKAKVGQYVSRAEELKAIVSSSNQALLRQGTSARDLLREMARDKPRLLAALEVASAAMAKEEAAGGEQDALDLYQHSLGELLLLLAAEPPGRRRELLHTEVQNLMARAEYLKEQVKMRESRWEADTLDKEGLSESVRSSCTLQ

[6] = target: RIPK2 (Homo sapiens, UniProt O43353)
[7] = target: LYN (Homo sapiens, UniProt P07948)
Sequence of LYN (P07948 whole entry): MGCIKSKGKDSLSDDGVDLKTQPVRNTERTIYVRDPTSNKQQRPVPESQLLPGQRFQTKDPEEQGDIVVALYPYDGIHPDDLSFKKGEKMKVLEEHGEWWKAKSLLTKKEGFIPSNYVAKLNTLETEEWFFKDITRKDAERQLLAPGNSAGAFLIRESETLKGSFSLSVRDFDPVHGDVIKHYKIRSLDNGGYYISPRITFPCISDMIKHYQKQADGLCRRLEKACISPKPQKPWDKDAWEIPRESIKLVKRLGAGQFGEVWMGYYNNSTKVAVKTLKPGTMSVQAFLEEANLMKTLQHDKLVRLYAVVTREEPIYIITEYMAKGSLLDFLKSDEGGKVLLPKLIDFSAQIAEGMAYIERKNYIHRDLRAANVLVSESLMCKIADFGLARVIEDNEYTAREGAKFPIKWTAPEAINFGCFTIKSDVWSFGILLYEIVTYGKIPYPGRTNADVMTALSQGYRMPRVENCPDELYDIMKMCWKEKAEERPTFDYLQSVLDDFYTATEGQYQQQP

[8] = target: PIK3CA(E542K) (Homo sapiens, UniProt P42336, E542K)
Sequence of PIK3CA(E542K) (P42336 whole entry E542K): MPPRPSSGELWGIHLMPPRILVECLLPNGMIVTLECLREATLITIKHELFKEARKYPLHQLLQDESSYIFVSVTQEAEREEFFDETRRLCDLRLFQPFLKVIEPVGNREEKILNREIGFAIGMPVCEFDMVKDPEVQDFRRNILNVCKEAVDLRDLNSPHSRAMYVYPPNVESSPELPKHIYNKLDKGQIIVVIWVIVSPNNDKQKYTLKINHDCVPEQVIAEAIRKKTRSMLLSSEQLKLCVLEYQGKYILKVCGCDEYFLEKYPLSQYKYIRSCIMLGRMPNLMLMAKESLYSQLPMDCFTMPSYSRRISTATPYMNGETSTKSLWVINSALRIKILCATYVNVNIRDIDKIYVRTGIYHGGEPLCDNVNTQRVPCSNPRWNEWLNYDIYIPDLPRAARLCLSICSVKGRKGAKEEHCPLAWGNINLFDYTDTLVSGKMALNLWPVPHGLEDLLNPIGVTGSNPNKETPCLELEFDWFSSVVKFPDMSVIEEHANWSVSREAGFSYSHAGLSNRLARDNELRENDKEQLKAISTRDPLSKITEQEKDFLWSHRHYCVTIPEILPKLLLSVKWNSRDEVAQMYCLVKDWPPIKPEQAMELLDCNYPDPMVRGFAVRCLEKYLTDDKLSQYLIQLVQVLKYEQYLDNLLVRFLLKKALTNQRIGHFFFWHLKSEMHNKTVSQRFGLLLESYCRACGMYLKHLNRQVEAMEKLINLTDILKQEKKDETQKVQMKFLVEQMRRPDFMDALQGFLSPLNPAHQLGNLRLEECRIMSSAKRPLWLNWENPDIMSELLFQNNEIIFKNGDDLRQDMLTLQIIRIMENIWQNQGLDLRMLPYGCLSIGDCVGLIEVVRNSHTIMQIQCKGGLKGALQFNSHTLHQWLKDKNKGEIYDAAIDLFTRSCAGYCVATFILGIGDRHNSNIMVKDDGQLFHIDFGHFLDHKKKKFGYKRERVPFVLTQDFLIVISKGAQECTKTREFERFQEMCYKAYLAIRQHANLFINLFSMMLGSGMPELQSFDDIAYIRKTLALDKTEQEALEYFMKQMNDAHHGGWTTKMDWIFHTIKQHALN

[9] = target: RET(M918T) (Homo sapiens, UniProt P07949, M918T)
Sequence of RET(M918T) (P07949 whole entry M918T): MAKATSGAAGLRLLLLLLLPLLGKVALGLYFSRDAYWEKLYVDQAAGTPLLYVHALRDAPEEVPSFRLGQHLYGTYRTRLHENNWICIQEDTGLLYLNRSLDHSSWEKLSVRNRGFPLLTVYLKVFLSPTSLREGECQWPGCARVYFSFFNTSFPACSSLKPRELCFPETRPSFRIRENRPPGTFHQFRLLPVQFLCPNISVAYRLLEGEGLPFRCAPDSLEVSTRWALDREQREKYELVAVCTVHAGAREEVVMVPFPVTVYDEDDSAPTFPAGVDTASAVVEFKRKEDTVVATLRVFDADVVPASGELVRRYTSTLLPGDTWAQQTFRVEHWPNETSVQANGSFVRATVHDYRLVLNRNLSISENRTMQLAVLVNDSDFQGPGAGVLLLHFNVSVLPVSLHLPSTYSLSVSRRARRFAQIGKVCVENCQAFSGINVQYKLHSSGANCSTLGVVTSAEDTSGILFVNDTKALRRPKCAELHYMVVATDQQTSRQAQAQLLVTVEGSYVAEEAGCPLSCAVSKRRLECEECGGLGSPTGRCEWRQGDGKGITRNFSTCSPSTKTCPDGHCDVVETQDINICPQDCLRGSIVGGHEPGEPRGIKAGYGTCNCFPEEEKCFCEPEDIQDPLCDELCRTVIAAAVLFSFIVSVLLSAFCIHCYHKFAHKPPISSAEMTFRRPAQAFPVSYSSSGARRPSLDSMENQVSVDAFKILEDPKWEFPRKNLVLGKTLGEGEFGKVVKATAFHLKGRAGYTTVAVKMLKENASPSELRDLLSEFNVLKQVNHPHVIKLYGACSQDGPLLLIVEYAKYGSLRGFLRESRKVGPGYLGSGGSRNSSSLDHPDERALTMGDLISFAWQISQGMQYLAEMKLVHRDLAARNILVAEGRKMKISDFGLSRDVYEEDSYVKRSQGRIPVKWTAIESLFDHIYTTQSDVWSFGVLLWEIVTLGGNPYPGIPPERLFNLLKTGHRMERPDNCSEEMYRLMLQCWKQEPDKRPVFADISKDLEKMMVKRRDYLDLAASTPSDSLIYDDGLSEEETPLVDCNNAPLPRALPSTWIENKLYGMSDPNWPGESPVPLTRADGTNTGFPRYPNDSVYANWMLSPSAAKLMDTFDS

[10] = target: EGFR(G719C) (Homo sapiens, UniProt P00533, G719C)
Sequence of EGFR(G719C) (P00533 whole entry G719C): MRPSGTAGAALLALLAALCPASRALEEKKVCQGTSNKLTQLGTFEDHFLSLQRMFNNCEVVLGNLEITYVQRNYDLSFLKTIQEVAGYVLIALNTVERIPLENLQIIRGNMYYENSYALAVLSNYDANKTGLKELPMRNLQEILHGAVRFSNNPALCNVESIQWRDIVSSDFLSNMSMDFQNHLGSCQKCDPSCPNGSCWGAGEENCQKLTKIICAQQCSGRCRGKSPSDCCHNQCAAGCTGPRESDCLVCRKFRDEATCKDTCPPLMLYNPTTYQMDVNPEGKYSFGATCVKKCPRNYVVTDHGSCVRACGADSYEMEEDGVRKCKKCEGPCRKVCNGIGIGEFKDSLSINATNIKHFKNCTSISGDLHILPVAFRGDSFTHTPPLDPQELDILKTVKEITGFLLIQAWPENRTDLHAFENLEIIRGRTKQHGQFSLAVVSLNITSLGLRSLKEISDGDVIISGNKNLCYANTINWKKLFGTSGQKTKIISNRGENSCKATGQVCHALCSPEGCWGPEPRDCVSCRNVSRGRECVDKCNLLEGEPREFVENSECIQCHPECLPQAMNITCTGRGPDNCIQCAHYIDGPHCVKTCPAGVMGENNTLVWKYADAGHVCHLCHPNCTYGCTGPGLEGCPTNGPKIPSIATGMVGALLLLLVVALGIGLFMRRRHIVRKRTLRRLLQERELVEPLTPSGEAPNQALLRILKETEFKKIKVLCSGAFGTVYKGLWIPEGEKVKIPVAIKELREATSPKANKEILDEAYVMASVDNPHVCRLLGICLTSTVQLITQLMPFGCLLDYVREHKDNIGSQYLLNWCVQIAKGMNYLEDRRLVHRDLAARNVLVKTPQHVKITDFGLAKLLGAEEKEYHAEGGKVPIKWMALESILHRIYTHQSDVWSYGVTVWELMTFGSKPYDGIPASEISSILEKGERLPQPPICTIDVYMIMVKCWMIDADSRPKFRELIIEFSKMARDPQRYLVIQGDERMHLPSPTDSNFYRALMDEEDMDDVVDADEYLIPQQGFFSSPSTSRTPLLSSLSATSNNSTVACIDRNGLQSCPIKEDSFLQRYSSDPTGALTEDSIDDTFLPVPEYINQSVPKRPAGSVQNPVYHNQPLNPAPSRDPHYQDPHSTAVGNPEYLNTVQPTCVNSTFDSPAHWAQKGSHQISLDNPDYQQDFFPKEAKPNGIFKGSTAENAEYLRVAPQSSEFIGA

[11] = target: T6, RSK4(Kin.Dom.1-N-terminal) (Homo sapiens, UniProt Q9UK32)
T6 construct: gene RPS6KA6; Kin.Dom.1-N-terminal

[12] = target: STK39 (Homo sapiens, UniProt Q9UEW8)
[13] = target: KIT(V559D,V654A) (Homo sapiens, UniProt P10721, V559D/V654A)
[14] = target: ERBB3 (Homo sapiens, UniProt P21860)
[15] = target: SIK2 (Homo sapiens, UniProt Q9H0K1)
[16] = read-out: Niraparib (MK-4827) / %Ctrl @ 10000nM
[17] = read-out: Olaparib / %Ctrl @ 10000nM
[18] = read-out: Rucaparib / %Ctrl @ 10000nM, binding competition, % of control
[19] = read-out: Talazoparib (BMN 673) / %Ctrl @ 10000nM

Compound: NC(=O)c1cccc2cn(-c3ccc([C@@H]4CCCNC4)cc3)nc12 [Niraparib]
percent of control binding at 10 µM [1, 16]: 100%
percent of control binding at 10 µM [2, 16]: 81%
percent of control binding at 10 µM [3, 16]: 48%
percent of control binding at 10 µM [4, 16]: 82%
percent of control binding at 10 µM [5, 16]: 100%
percent of control binding at 10 µM [6, 16]: 78%
percent of control binding at 10 µM [7, 16]: 71%
percent of control binding at 10 µM [8, 16]: 100%
percent of control binding at 10 µM [9, 16]: 95%
percent of control binding at 10 µM [10, 16]: 86%
percent of control binding at 10 µM [11, 16]: 100%
percent of control binding at 10 µM [12, 16]: 70%
percent of control binding at 10 µM [13, 16]: 90%
percent of control binding at 10 µM [14, 16]: 100%
percent of control binding at 10 µM [15, 16]: 91%

percent of control binding at 10 µM [1, 17]: 94%
percent of control binding at 10 µM [2, 17]: 95%
percent of control binding at 10 µM [3, 17]: 83%
percent of control binding at 10 µM [4, 17]: 78%
percent of control binding at 10 µM [5, 17]: 80%
percent of control binding at 10 µM [6, 17]: 93%
percent of control binding at 10 µM [7, 17]: 93%
percent of control binding at 10 µM [8, 17]: 94%
percent of control binding at 10 µM [9, 17]: 100%
percent of control binding at 10 µM [10, 17]: 98%
percent of control binding at 10 µM [11, 17]: 76%
percent of control binding at 10 µM [12, 17]: 92%
percent of control binding at 10 µM [13, 17]: 95%
percent of control binding at 10 µM [14, 17]: 83%
percent of control binding at 10 µM [15, 17]: 100%
Compound: O=C(c1cc(Cc2n[nH]c(=O)c3ccccc23)ccc1F)N1CCN(C(=O)C2CC2)CC1 [Olaparib]

percent of control binding at 10 µM [1, 18]: 96%
percent of control binding at 10 µM [2, 18]: 90%
percent of control binding at 10 µM [3, 18]: 58%
percent of control binding at 10 µM [4, 18]: 70%
percent of control binding at 10 µM [5, 18]: 70%
percent of control binding at 10 µM [6, 18]: 88%
percent of control binding at 10 µM [7, 18]: 89%
percent of control binding at 10 µM [8, 18]: 82%
percent of control binding at 10 µM [9, 18]: 97%
percent of control binding at 10 µM [10, 18]: 82%
percent of control binding at 10 µM [11, 18]: 63%
percent of control binding at 10 µM [12, 18]: 73%
percent of control binding at 10 µM [13, 18]: 92%
percent of control binding at 10 µM [14, 18]: 74%
percent of control binding at 10 µM [15, 18]: 96%
Compound: CNCc1ccc(-c2[nH]c3cc(F)cc4c3c2CCNC4=O)cc1 [Rucaparib]

percent of control binding at 10 µM [1, 19]: 85%
percent of control binding at 10 µM [2, 19]: 100%
percent of control binding at 10 µM [3, 19]: 60%
percent of control binding at 10 µM [4, 19]: 93%
percent of control binding at 10 µM [5, 19]: 84%
percent of control binding at 10 µM [6, 19]: 100%
percent of control binding at 10 µM [7, 19]: 87%
percent of control binding at 10 µM [8, 19]: 100%
percent of control binding at 10 µM [9, 19]: 96%
percent of control binding at 10 µM [10, 19]: 99%
percent of control binding at 10 µM [11, 19]: 99%
percent of control binding at 10 µM [12, 19]: 100%
percent of control binding at 10 µM [13, 19]: 96%
percent of control binding at 10 µM [14, 19]: 100%
percent of control binding at 10 µM [15, 19]: 100%
Compound: Cn1ncnc1[C@H]1c2n[nH]c(=O)c3cc(F)cc(c23)N[C@@H]1c1ccc(F)cc1 [Talazoparib]

— paper PMC7026418, “The kinase polypharmacology landscape of clinical PARP inhibitors” (Scientific Reports, 2020)
